Patent US11076594B2, “Pyrazolone compound or salt thereof, preparation method therefor, herbicide composition and use thereof” (QINGDAO KINGAGROOT CHEMICAL COMPOUNDS CO., LTD., priority 2015, dated 2021)

Key:
Type in all cases: in vivo
wheat = wheat field test, crop selectivity, greenhouse spray at 4 leaf stage; details: 4 weeks after treatment
Summary of the method: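 Seeds sown in soil-filled pots, covered 0.5-2 cm, greenhouse-grown; sprayed at 4 leaf stage (2-3 wk); acetone/methyl oleate emulsion/water formulation; 4 wk greenhouse; fresh wt control rate.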

sagittaria trifolia = test: weed control effect evaluation in rice field; design: key: Level 10: completely dead; Level 9: above 95% growth control rate; Level 8: above 90% growth control rate; Level 7: above 80% growth control rate; Level 6: above 70% growth control rate; Level 5: above 60% growth control rate; Level 4: above 50% growth control rate; Level 3: above 20% growth control rate; Level 2: 5%-20% growth control rate; Level 1: below 5% growth control rate; details: 125 g/ha ai; rice field pot; 14 days after treatment; resistant to pyrazosulfuron-ethyl
Text: (§1) The activity level standard of harmful plant destruction (i.e. growth control rate) is as follows: Rice field soil was loaded into a 1/1,000,000 ha pot. The seeds of echinochloa, scirpus juncoides, bidens tripartite and sagittaria trifolia were sowed and gently covered with soil, then left to stand still in greenhouse in the state of 0.5-1 cm of water storage. The tuber of sagittaria trifolia was planted in the next day or 2 days later. It was kept at 3-4 cm of water storage thereafter. The weeds were treated by dripping the WP or SC water diluents prepared according to the common preparation method of the compounds of the present invention with pipette homogeneously to achieve specified effective amount when echinochloa, scirpus juncoides and bidens tripartite reached 0.5 leaf stage and sagittaria trifolia reached the time point of primary leaf stage. The fertility condition of echinochloa, scirpus juncoides, bidens tripartite and sagittaria trifolia 14 days after the treatment of the compound of the invention and the fertility condition of rice 21 days after the treatment of the compound of the invention respectively with the naked eye.

echinochloa [1] = test: weed control effect evaluation in rice field; design: key: Level 10: completely dead; Level 9: above 95% growth control rate; Level 8: above 90% growth control rate; Level 7: above 80% growth control rate; Level 6: above 70% growth control rate; Level 5: above 60% growth control rate; Level 4: above 50% growth control rate; Level 3: above 20% growth control rate; Level 2: 5%-20% growth control rate; Level 1: below 5% growth control rate; details: 125 g/ha ai; rice field pot; 14 days after treatment; resistant to pyrazosulfuron-ethyl
Text: as §1

scirpus juncoides = test: weed control effect evaluation in rice field; design: key: Level 10: completely dead; Level 9: above 95% growth control rate; Level 8: above 90% growth control rate; Level 7: above 80% growth control rate; Level 6: above 70% growth control rate; Level 5: above 60% growth control rate; Level 4: above 50% growth control rate; Level 3: above 20% growth control rate; Level 2: 5%-20% growth control rate; Level 1: below 5% growth control rate; details: 125 g/ha ai; rice field pot; 14 days after treatment; resistant to pyrazosulfuron-ethyl
Text: as §1

bidens tripartite = test: weed control effect evaluation in rice field; design: key: Level 10: completely dead; Level 9: above 95% growth control rate; Level 8: above 90% growth control rate; Level 7: above 80% growth control rate; Level 6: above 70% growth control rate; Level 5: above 60% growth control rate; Level 4: above 50% growth control rate; Level 3: above 20% growth control rate; Level 2: 5%-20% growth control rate; Level 1: below 5% growth control rate; details: 125 g/ha ai; rice field pot; 14 days after treatment; resistant to pyrazosulfuron-ethyl
Text: as §1

rorippa indica = test: weed control effect in post-emergence stage (Table 1); design: key: Level 10: completely dead; Level 9: above 95% growth control rate; Level 8: above 90% growth control rate; Level 7: above 80% growth control rate; Level 6: above 70% growth control rate; Level 5: above 60% growth control rate; Level 4: above 50% growth control rate; Level 3: above 20% growth control rate; Level 2: 5%-20% growth control rate; Level 1: below 5% growth control rate; details: post-emergence spray at 4-5 leaf stage, 250 g/ha active ingredient with 450 kg/ha water, rated after 3 weeks in greenhouse
Summary of the method: (§2)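 Weed and crop seeds sown in soil-filled pots under 0.5-2 cm soil, greenhouse-grown, then sprayed at 4-5 leaf stage (2-3 weeks after sowing) with compound in acetone/Tween 80/water. Fresh weight growth control rate assessed after 3 weeks in greenhouse.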

echinochloa [2] = test: as above; design: key: Level 10: completely dead; Level 9: above 95% growth control rate; Level 8: above 90% growth control rate; Level 7: above 80% growth control rate; Level 6: above 70% growth control rate; Level 5: above 60% growth control rate; Level 4: above 50% growth control rate; Level 3: above 20% growth control rate; Level 2: 5%-20% growth control rate; Level 1: below 5% growth control rate; details: post-emergence spray at 4-5 leaf stage, 250 g/ha active ingredient with 450 kg/ha water, rated after 3 weeks in greenhouse
Summary of the method: as §2

Indian mallow = test: as above; design: key: Level 10: completely dead; Level 9: above 95% growth control rate; Level 8: above 90% growth control rate; Level 7: above 80% growth control rate; Level 6: above 70% growth control rate; Level 5: above 60% growth control rate; Level 4: above 50% growth control rate; Level 3: above 20% growth control rate; Level 2: 5%-20% growth control rate; Level 1: below 5% growth control rate; details: post-emergence spray at 4-5 leaf stage, 250 g/ha active ingredient with 450 kg/ha water, rated after 3 weeks in greenhouse
Summary of the method: as §2

foxtail = test: as above; design: key: Level 10: completely dead; Level 9: above 95% growth control rate; Level 8: above 90% growth control rate; Level 7: above 80% growth control rate; Level 6: above 70% growth control rate; Level 5: above 60% growth control rate; Level 4: above 50% growth control rate; Level 3: above 20% growth control rate; Level 2: 5%-20% growth control rate; Level 1: below 5% growth control rate; details: post-emergence spray at 4-5 leaf stage, 250 g/ha active ingredient with 450 kg/ha water, rated after 3 weeks in greenhouse
Summary of the method: as §2

bidens bipinnata = test: as above; design: key: Level 10: completely dead; Level 9: above 95% growth control rate; Level 8: above 90% growth control rate; Level 7: above 80% growth control rate; Level 6: above 70% growth control rate; Level 5: above 60% growth control rate; Level 4: above 50% growth control rate; Level 3: above 20% growth control rate; Level 2: 5%-20% growth control rate; Level 1: below 5% growth control rate; details: post-emergence spray at 4-5 leaf stage, 250 g/ha active ingredient with 450 kg/ha water, rated after 3 weeks in greenhouse
Summary of the method: as §2

[3] = 2 g/mu, sprayed at 4 leaf stage
[4] = 4 g/mu, sprayed at 4 leaf stage
[5] = 8 g/mu, sprayed at 4 leaf stage
[6] = 16 g/mu, sprayed at 4 leaf stage
[7] = 32 g/mu, sprayed at 4 leaf stage
[8] = 250 g/ha of the active substance

SMILES | Wheat (activity level, crop damage) (wheat; [3]) | Wheat (activity level, crop damage) (wheat; [4]) | Wheat (activity level, crop damage) (wheat; [5]) | Wheat (activity level, crop damage) (wheat; [6]) | Wheat (activity level, crop damage) (wheat; [7]) | Sagittaria trifolia weed control effect (activity level) (sagittaria trifolia) | Echinochloa weed control effect (activity level) (echinochloa [1]) | Scirpus juncoides weed control effect (activity level) (scirpus juncoides) | Bidens tripartite weed control effect (activity level) (bidens tripartite) | weed control effect, Rorippa indica (level) (rorippa indica) | weed control effect, Echinochloa (level) (echinochloa [2]) | weed control effect, Indian mallow (level) (Indian mallow) | weed control effect, Green foxtail (level) (foxtail) | weed control effect, Bidens bipinnata (level) (bidens bipinnata) | Wheat (activity level, crop damage) (wheat; [8])
Cc1nn(C)c(O)c1C(=O)c1ccc(C(F)(F)F)c(N2CCCCC2=O)c1Cl [Compound 035] | 0 | 0 | 0 | 0 | 0 | 9 (Level 9: above 95% growth control rate) | 8 (Level 8: above 90% growth control rate) | 10 | 9 (Level 9: above 95% growth control rate) | 9 (Level 9: above 95% growth control rate) | 7 (Level 7: above 80% growth control rate) | 9 (Level 9: above 95% growth control rate) | 10 | 9 (Level 9: above 95% growth control rate) | –
CCOc1c(C(=O)Oc2c(C(=O)c3ccc(C(F)(F)F)c(N4CCCCC4=O)c3Cl)c(C)nn2C)cnn1C [Compound 037] | – | – | – | – | – | 10 | 10 | 10 | 10 | 10 | 10 | 10 | 10 | 10 | 0
CCOc1c(C(=O)Oc2c(C(=O)c3ccc(C(F)(F)F)c(-n4cc(C)cn4)c3Cl)cnn2C)cnn1C [Compound 081] | – | – | – | – | – | 10 | 10 | 10 | 10 | 10 | 10 | 10 | 8 (Level 8: above 90% growth control rate) | 10 | 0
CCOc1c(C(=O)Oc2c(C(=O)c3ccc(C(F)(F)F)c(-n4cc(C)cn4)c3Cl)c(C3CC3)nn2C)cnn1C [Compound 092] | – | – | – | – | – | 10 | 10 | 10 | 9 (Level 9: above 95% growth control rate) | 10 | 6 (Level 6: above 70% growth control rate) | 10 | 8 (Level 8: above 90% growth control rate) | 8 (Level 8: above 90% growth control rate) | 1 (Level 1: below 5% growth control rate)
CCOc1c(C(=O)Oc2c(C(=O)c3ccc(C(F)(F)F)c(-n4cccn4)c3Cl)c(C)nn2C)cnn1C [Compound 071] | – | – | – | – | – | 10 | 10 | 10 | 8 (Level 8: above 90% growth control rate) | 10 | 6 (Level 6: above 70% growth control rate) | 10 | 8 (Level 8: above 90% growth control rate) | 7 (Level 7: above 80% growth control rate) | 0
Cc1nn(C)cc1C(=O)Oc1c(C(=O)c2ccc(C(F)(F)F)c(N3CCCC3=O)c2Cl)c(C)nn1C [Compound 023] | 1 (Level 1: below 5% growth control rate) | 2 (Level 2: 5%-20% growth control rate) | 3 (Level 3: above 20% growth control rate) | 4 (Level 4: above 50% growth control rate) | 4 (Level 4: above 50% growth control rate) | 10 | 10 | 10 | 10 | 10 | 10 | 10 | 10 | 10 | –
CCn1nc(C)c(C(=O)c2ccc(C(F)(F)F)c(-n3cccn3)c2Cl)c1OC(=O)c1cn(C)nc1C [Compound 129] | – | – | – | – | – | 10 | 10 | 10 | 10 | 10 | 10 | 3 (Level 3: above 20% growth control rate) | 10 | 9 (Level 9: above 95% growth control rate) | 1 (Level 1: below 5% growth control rate)
